A melting point compilation (Tetko et al.; mined from patent text by program, amines drawn as free bases though some values may be those of a salt)
Non-standard residues stand in square brackets, D forms with d. Residues, ends and D or L forms follow the SMILES beside them. ξ: configuration not given here. *: point of attachment. Cbz = O=C(OCc1ccccc1)*; Boc = CC(C)(C)OC(=O)*; Aib = CC(C)(N)C(=O)O; ξDap = NCC(N)C(=O)O

Row | Structure (SMILES) | melting point [°C]
1 | NC(=O)c1snc(Cl)c1Cl | 156 to 158
2 | Cc1oc(-c2ccco2)nc1COc1ccc(COc2nn(Cc3ccccc3)cc2C=O)cc1 | 118 to 119
3 | COc1ccc(N(CCC(O)CO)S(=O)(=O)c2c(F)c(F)c(F)c(F)c2F)cc1 (stereo not given) | 126 to 128
4 | CCOC(=O)C(C#N)=NOC(=O)Oc1cc(Cl)c(Cl)cc1Cl | 101 to 103
5 | CCOC(=O)C(=NOCc1ccc(OCc2nc(-c3ccccc3)oc2C)cc1)c1ccc(OC)cc1 | 102 to 103
6 | Nc1ccc(-c2ccc(N)c([N+](=O)[O-])c2)cc1[N+](=O)[O-] | 275
7 | COC12CCCCC1CC(c1ccccc1)=NN2S(=O)(=O)c1ccc(C)cc1 (stereo not given) | 112 to 114
8 | Nc1ccccc1-c1nc2ccccc2o1 | 104 to 107
9 | O=C(c1ccccc1)c1ccc(C(=O)N2Cc3ccccc3CCc3ccccc32)cc1 | 89 to 92
10 | Cc1ccc(NC(=O)c2cnn3c(C(F)F)cc(-c4ccc(C(F)(F)F)cc4)nc23)cc1S(N)(=O)=O | 249
11 | CC(C)(C)SCC1(C(=O)O)Cc2ccccc2C1 | 158 to 163
12 | c1ccc(-n2c(Cn3ccnc3)nc3cccnc32)cc1 | 146 to 148
13 | O=C(Nc1c(Cl)cc(C(F)(c2cccs2)C(F)(F)F)cc1Cl)c1cccc(NC(=O)c2c(F)cc(F)cc2F)c1F (stereo not given) | 190 to 193
14 | CCCC1CC(NCC)=C(c2cccc(C(F)(F)F)c2)C1=O (stereo not given) | 120
15 | C=Cc1cnc2c(NC(=O)c3c(Cl)cccc3Cl)cccc2c1CCO | 133 to 135
16 | O=[N+]([O-])c1ccc2c(c1)C(c1ccccc1)=NCC(OP(=O)(N1CCOCC1)N1CCOCC1)=N2 | 208 to 209
17 | O=C1Nc2ccc(Cl)cc2C1CC1CCCCC1 (stereo not given) | 152 to 153
18 | Cc1n[nH]c(C)c1-c1ccc(OC2SCC(O)C(O)C2O)cn1 (stereo not given) | 210
19 | CN1C(=O)C2(COc3cc4c(cc32)OCCO4)c2c(NC(=O)c3ccccc3C(F)(F)F)cccc21 (stereo not given) | 241 to 243
20 | Cc1ccc2c(c1)C(O)=C(C(=O)Nc1cncc(Cl)n1)N(C)S2(=O)=O | 296 to 298
21 | Cc1cc(C(N)=O)cc(C)c1C(=O)O | 238 to 240
22 | COC(=O)c1ccc([N+](=O)[O-])cc1C | 73.6
23 | O=c1[nH]c2ccccc2n1CCCN1CCN(C(c2ccc(Cl)cc2)c2cccnc2)CC1 (stereo not given) | 183
24 | CN(CCO)C(=O)c1c(-c2ccc(C(C)(C)C)cc2)n(C)n(-c2ccc(C#N)cc2)c1=O | 210 to 213
25 | O=C(c1cccs1)c1cccnc1N1CCCC1=O | 148 to 150
26 | COC(=O)c1cccc(-c2ncc(O)cn2)c1 | 219 to 223
27 | CC(C)c1ccc(S(=O)(=O)n2c(CCC(=O)O)cc3cc(Cl)ccc32)cc1 | 150 to 154
28 | CCCCc1nn(-c2cc(NC(=O)CC)ccc2C(F)(F)F)c(=O)n1Cc1ccc(-c2ccccc2S(=O)(=O)NC(=O)OC(C)(C)C)cc1 | 158 to 161

Row | Structure (SMILES) | melting point [°C]
29 | CCCc1noc(-c2ncn3c2[C@@H]2CCCN2C(=O)c2c(Cl)cccc2-3)n1 | 176 to 178
30 | Cn1ncc2c1C(=O)C(Cl)=C(NC1CC1)C2=O | 175 to 176
31 | COc1ccc(CC(=O)O)cc1C1CCCCC1 | 112 to 114
32 | Cc1nc2c(O[C@@H]3c4ccccc4C[C@H]3O)cc(Cl)cn2c1C=O (relative stereo) | 220 to 222
33 | CCc1cc(C(=O)c2ccccc2Cl)c(-n2c(C)nnc2CNC(=O)/C=C/c2ccccc2N)s1 | 141 to 143
34 | CCCCCCCCCCCCCCCCCCOc1ccc2c(c1OCCCCCCCCCCCCCCCCCC)C(=O)c1ccccc1C2=O | 100 to 107
35 | O=C(O)[C@@H](Cl)[C@H](O)c1ccccc1 | 98 to 100
36 | CCOC(=O)c1cn2c3c(cc(Br)cc3c1=O)CC2(C)C | 227 to 228
37 | CCS(=O)(=O)c1ccc(Oc2ccc(Cl)c(Cl)c2)nc1 | 117 to 118
38 | CC(C)=CCn1ccnc1[N+](=O)[O-] | 48 to 49
39 | CCC1(C)OC(c2ccc(S(C)(=O)=O)cc2)=C(c2ccc(C(C)(C)C)cc2)C1=O (stereo not given) | 45
40 | Nc1ccccc1NC(=O)c1ccc(CNC(=O)c2[nH]c(-c3ccoc3)cc2-c2ccc(O)cc2)cc1 | 70 to 72
41 | O=C(O)c1cn(C2CC2)c2c(F)c(N3CCCC(n4cncn4)C3)c(F)cc2c1=O (stereo not given) | 217
42 | COc1ccc([C@@H]2OC(=O)[C@H](Cc3ccccc3)N2C(=O)OCc2ccccc2)cc1 | 85
43 | COc1ccc(C(OCC2OC(n3cnc4c(NC(=O)c5ccccc5)ncnc43)C(O)C2O[Si](C)(C)C(C)(C)C)(c2ccccc2)c2ccccc2)cc1 (stereo not given) | 189
44 | Nc1nc(O)nc2nc(-c3ccco3)nn12 | > 300
45 | CCOC(=O)C(Cl)=Cc1cc(-n2ncc(C(F)(F)F)cc2=O)ccc1Cl | 98 to 100
46 | O=c1[nH]c2c(n3ccnc13)Cc1ccccc1-2 | 350
47 | O=C1N(N2CCCCC2)c2ccccc2C1(Cc1ccncc1)c1ccccc1 (stereo not given) | 128 to 131
48 | CCOc1cc(N)c([N+](=O)[O-])cc1C(=O)O | 230
49 | COCCn1cc(C(=O)O)c2c(C(=O)N3CCOCC3)cccc21 | 201 to 203
50 | COc1cc(-c2nc(C)no2)cc([N+](=O)[O-])c1OC | 111
51 | CN1C2CCC1CN(C(=O)c1ccco1)C2 | 106
52 | O=C1NC(=O)c2c1c(-c1ccccc1Cl)cc1c2c2cc(O)ccc2n1CCC(O)CO (stereo not given) | 263 to 267
53 | O=C1CCC(N2C(=O)c3ccc(CNC(=O)NC4CCCCC4)cc3C2=O)C(=O)N1 (stereo not given) | 208 to 210
54 | COC(=O)CCCCCCC1=CC(O)CC1=O (stereo not given) | 50 to 51
55 | CCOC(OCC)[C@@H]1CCCN1C(=O)[C@@H]1CCCN1C(=O)OCc1ccccc1 | 58.5 to 61

Now from value to compound:

Row | melting point [°C] | Structure (SMILES)
56 | 125 to 130 | CCONC(=O)c1cc(NCC2CCN(Cc3ccccc3)CC2)ccn1
57 | 157 | COc1ccc(OC)c(C2(Cl)C(=O)Nc3ccc(Cl)cc32)c1 (stereo not given)
58 | 100 to 101 | COC(=O)C(CNC(=O)OC(C)(C)C)NC(=O)C(C)(C)NC(=O)OCc1ccccc1 (stereo not given) (Cbz-[Aib]-[ξDap](Boc)-OMe)
59 | 147 | Cc1ccc(S(=O)(=O)NN=C(Cc2ccc(OCc3ccccc3)cc2)c2cc(OCc3ccccc3)cc(OCc3ccccc3)c2)cc1
60 | 161 to 163 | CC(C)(C)c1ccc(C(O)(c2ccccc2)C2CCN(CCCC(O)c3ccccc3)CC2)cc1 (stereo not given)
61 | 151 to 152 | CCCCCn1c(=O)c2cc(C(=O)OCC)cn2c2ccccc21
62 | 78 to 80 | COC(=O)CCCC(=O)c1ccc(OCCCC/C=C/c2ccc(OC)cc2)c(O)c1
63 | 214 to 216 | CCCCn1c(=O)c(C(=O)OCC)c(N)c2cnc(C)nc21
64 | 180 to 183 | CC(=O)Nc1ccc2[nH]c(=O)cc(CCN3CCC(c4c[nH]c5ccccc45)CC3)c2c1
65 | 179 to 180 | N#Cc1cccc(Oc2ncccc2C(=O)NCc2ccc(S(N)(=O)=O)cc2)c1
66 | 108 to 109 | COC(=O)Cc1cccc(OC)c1OCCCc1cn(-c2ccc([N+](=O)[O-])cn2)nc1C(C)C
67 | 152 to 154 | CC(Cc1ccccc1)(C(=NC#N)NCc1ccco1)c1ccccn1 (stereo not given)
68 | 60 to 61 | OCc1cnoc1-c1ccc(F)cc1F
69 | 196 to 197 | O=c1c2ccc([N+](=O)[O-])cc2nc2n1CCC2=Cc1ccccc1
70 | 114 to 116 | CCS(=O)(=O)N(c1ccc(F)cc1Br)S(=O)(=O)CC
71 | 281 to 285 | Cc1ccc2c(c1)-n1cc(C(=O)O)nc1CO2
72 | 208 to 209 | CCC(=O)NC1=NN(c2nc3ccccc3s2)C(c2ccc(C)cc2)C1 (stereo not given)
73 | 129 to 131 | COC(=O)c1ccc2c(c1)Sc1ccc(F)cc1C(=O)C2
74 | 263 to 265 | COc1cc(OC(C)C)cc2oc(Sc3ccc(O)cc3)cc(=O)c12
75 | 163 | Fc1cccc(F)c1Cn1c(-c2ccccc2)nc2ccccc21

Row | melting point [°C] | Structure (SMILES)
76 | 282 | CS(=O)(=O)Nc1ccc2ccccc2c1-c1c(P(=O)(c2ccccc2)c2ccccc2)ccc2ccccc12
77 | 258 | Nc1ccc(-c2noc(-c3cnc4ccc(-c5ccc(C(F)(F)F)cc5)cn34)n2)cn1
78 | 119 to 121 | CCN(CC)c1ccncc1NC(=S)NC1CCCCC1
79 | 81 to 84 | N#CCc1nc(C(=O)c2ccc(Cl)cc2)no1
80 | 68 to 70 | CC(C)(C)OC(=O)N[C@@H](CCCCN=C=O)C(=O)N1CC(F)(F)C(F)(F)C1
81 | 110 to 112 | CCCCCCCCCCCCCCCCCCOc1cc(C(=O)N(CC(=O)O)CC(=O)O)cc([N+](=O)[O-])c1
82 | 53 to 56 | O=C(CBr)c1ccc(OCc2ccccc2)c(CCOCc2ccccc2)c1
83 | 190 | CCCOc1ccc(S(=O)(=O)N2CC[C@@H](N(C)C)C2)cc1-c1nc2cc3ncn(Cc4ccccc4)c3cc2c(=O)[nH]1
84 | 30 to 31 | Cc1cc(C)c(F)cc1F
85 | 49 to 51 | O=C1CCCC12CCOc1ccc(F)cc12 (stereo not given)
86 | 156 to 158 | CCC1CCCCN1CC(=O)NN=Cc1c(-c2ccccc2)nn2ccccc12 (stereo not given)
87 | 214 to 217 | O=c1ccc(Oc2ccc([N+](=O)[O-])cc2)c[nH]1
88 | 131 to 132 | CC(=O)NC(C)CCC1CCN(c2nc3ccc(OCC4CC4)cc3o2)CC1 (stereo not given)
89 | 179 to 181 | CCCCCC(=O)OCC(CO)CCn1cnc2c(=O)[nH]c(N)nc21 (stereo not given)
90 | 150 to 151 | C=CC(=O)N1CCc2cc(OC)c(OC)cc2C12CCC(C(=O)OCC)(C(=O)OCC)CC2C1c2cc(OC)c(OC)cc2CCN1CC (stereo not given)
91 | 131 to 133 | Cc1cncn1-c1cc(N)cc(C(F)(F)F)c1
92 | 112 to 113 | OCCC(c1ccccc1)C(O)(c1ccccc1)c1ccccc1 (stereo not given)
93 | 230 to 234 | CC(Cc1c[nH]c2ccccc12)(NC(=O)OC1C2CC3CC(C2)CC1C3)C(=O)NC1CCCCC1C(=O)O (stereo not given)
94 | 178 | Cc1cc(NC(=O)CC#N)nc(C)n1
95 | 52 to 54 | CCCCCCCCCCCCCCCCCCOc1ccc(OCc2ccccc2)c(C(=O)OC)c1
